The assay deals with T1, Polyunsaturated fatty acid lipoxygenase ALOX15 (Oryctolagus cuniculus, UniProt P12530).
T1 sequence (P12530 whole entry): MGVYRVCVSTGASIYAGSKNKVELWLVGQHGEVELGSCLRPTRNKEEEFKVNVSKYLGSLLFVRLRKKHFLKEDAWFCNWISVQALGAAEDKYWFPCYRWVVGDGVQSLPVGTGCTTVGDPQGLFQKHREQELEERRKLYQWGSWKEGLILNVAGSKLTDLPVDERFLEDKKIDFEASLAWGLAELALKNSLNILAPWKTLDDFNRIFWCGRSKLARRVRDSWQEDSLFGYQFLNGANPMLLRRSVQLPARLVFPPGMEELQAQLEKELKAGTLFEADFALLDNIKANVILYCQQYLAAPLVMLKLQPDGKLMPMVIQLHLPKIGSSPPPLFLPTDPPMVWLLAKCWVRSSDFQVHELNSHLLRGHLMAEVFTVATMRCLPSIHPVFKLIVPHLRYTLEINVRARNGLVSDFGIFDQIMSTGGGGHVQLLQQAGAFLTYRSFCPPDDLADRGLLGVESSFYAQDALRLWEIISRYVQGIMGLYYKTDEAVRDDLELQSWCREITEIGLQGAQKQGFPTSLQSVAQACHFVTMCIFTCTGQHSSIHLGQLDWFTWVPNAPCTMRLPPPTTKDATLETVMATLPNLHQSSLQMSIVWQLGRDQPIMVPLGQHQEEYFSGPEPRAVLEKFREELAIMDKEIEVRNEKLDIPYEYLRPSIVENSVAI
Kind of assay: Enzyme Inhibition Assay. The procedure: The inhibitory activity of the compounds against purified 15-LO enzyme was determined using a standard colorimetric assay in which the lipid hydroperoxide product (13-hydroperoxyoctadecadienoic acid) oxidizes Fe2+. The Fe3+ forms a chromophore with xylenol orange that absorbs strongly at 560 nm.

pIC50: −log10 of the molar value.

As usually defined, the pIC50 is the IC50 on a negative log10 scale, so that one unit is a factor of ten. Read a low pIC50 as a high IC50. The compound `CCCCCc1ccc(S(=O)(=O)NCCc2nc(-c3ccc(Cl)cc3)[nH]c2-c2ccc(OC)cc2)cc1` [N-{2-[2-(4-chlorophenyl)-5-(4-methoxyphenyl)-1H-imidazol-4-yl]ethyl}-4-pentylbenzene-1-sulfonamide] had a pIC50 of 6.68. With `COc1ccc(-c2nc(-c3cccs3)[nH]c2CCNS(=O)(=O)N(C)[C@@H]2CCN(c3ccc(Cl)c(Cl)c3)C2)cc1` [{[(3R)-1-(3,4-dichlorophenyl)pyrrolidin-3-yl](methyl)sulfamoyl}({2-[5-(4-methoxyphenyl)-2-(thiophen-2-yl)-1H-imidazol-4-yl]ethyl})amine] the figure was 7.96.

The values are drawn from BindingDB's records for doi:10.1016/j.bmcl.2007.07.011 (Bristol Myers Squibb, 2007).
